Experimental data taken from US20230147129A1, “COMPOUNDS FOR USE IN THE TREATMENT OF SYNUCLEINOPATHIES” (SOM INNOVATION BIOTECH, S.A., priority 2020, published 2023).

Assays:
α-synuclein [1] = molecular target: T1, α-synuclein (Homo sapiens, UniProt P37840); test: Light scattering of α-synuclein aggregates at end-point (48 h); type: biochemical; conditions: 48 h end-point; for Effect on aggregation measured by light scattering at 300 and 340 nm (in words): FIG. 2A and 2B; for Normalized light scattering value at 300 nm: normalised to control = 1, excitation 300 nm; for Normalized light scattering value at 340 nm: normalised to control = 1, excitation 340 nm
Procedure: Total aggregate formation at 48 h was measured by light scattering adding 80 μL of pre-aggregated α-synuclein into a quartz cuvette. Samples were previously re-suspended by carefully vortexing and pipetting, and then excited at 300 and 340 nm and 90° scattering collected between 280 to 360 nm. These measurements were performed in a Cary Eclipse Fluorescence Spectrophotometer (Agilent, Santa Clara, Calif., USA).

α-synuclein [2] = molecular target: T1, α-synuclein; test: Thioflavin-T assay of α-synuclein aggregation kinetics; type: biochemical; conditions: 100 μM compound, FIG. 1A and 1B
Procedure: Lyophilized α-synuclein was dissolved in PBS (phosphate buffer solution) to a final solution of 210 μM and filtered through a Millipore 0.22 μm filter. α-synuclein aggregation was performed in a 96-well plate (non-treated, black plastic), each well containing a Teflon® polyball ⅛″ diameter (Polysciences Europe GmbH, Eppelheim, Germany), 40 μM Thioflavin-T (Th-T), 70 μM α-synuclein, 100 μM of the compounds to be tested and PBS up to a final volume of 150 μL. The plates were fixed into an orbital culture shaker Max-Q 4000 (Thermo Scientific, Waltham, Mass., USA) to keep the incubation at 37° C., 100 rpm. Every, 2 h, the fluorescence intensity was measured using a Victor 3.0 Multilabel Reader (PerkinElmer, Waltham, Mass., USA), by exciting the mixtures with 430-450 nm filter and collecting the emission intensity with 480-510 nm filter. Each measurement was performed in triplicates.
Each plate contained three (3) α-synuclein controls in the absence of any of the tested compounds. The averaged Th-T fluorescence obtained for these wells at the end of the experience was normalized to 1, and the kinetic curves in the different wells re-scaled accordingly. After compiling the fluorescence signals, means and standard error of mean (SEM) were used to fit the aggregation kinetic with equation (1),
wherein k^b and k^a indicate the homogeneous nucleation rate constant and the secondary rate constant, accounting for fibril elongation and secondary nucleation, respectively.
Re-scaled curves were used to compare the controls with the effect of the compounds and to ensure that the controls were reproducible between different experiments.

[3] = test system: primary culture of dopaminergic neurons injured with a mitochondrial toxin (MPP+); test: Neuroprotection in primary culture of dopaminergic neurons injured with MPP+; type: cell-based, rat; conditions: compounds 10 nM to 10 μM, pre-incubated 1 or 4 hours, MPP+ 4 μM for 48 hours, FIG. 16-20
Procedure: The efficacy of 5 compounds was assessed in a primary culture of dopaminergic neurons injured with a mitochondrial toxin (MPP+), which is often used to experimentally mimic the pathology of Parkinson disease (FIG. 16 to 20).
To obtain rat dopaminergic neurons, pregnant female rats (Wistar, Janvier Labs, France) of 15 days of gestation were killed using a deep anesthesia in a CO2 chamber followed by a cervical dislocation. Midbrains obtained from 15-day-old rat embryos were dissected under microscope and placed in ice-cold medium of Leibovitz (L15) containing 2% of Penicillin-Streptomycin (PS) and 1% of bovine serum albumin (BSA). The ventral portion of the mesencephalic flexure, a region of the developing brain rich in dopaminergic neurons, was used for the cell preparations.
The midbrains were dissociated by trypsinization for 20 min at 37° C. (solution at a final concentration of 0.05% trypsin and 0.02% EDTA). The reaction was stopped by adding Dulbecco's modified Eagle's medium (DMEM) containing DNAase I grade II (0.5 mg/mL) and 10% of fetal calf serum (FCS). Cells were then mechanically dissociated by 3 passages through a 10 ml pipette. […] The supernatant was discarded and the cell pellet was re-suspended in a defined culture serum-free medium consisting of Neurobasal (Invitrogen) supplemented with B27 (2%), L-glutamine (2 mM) and 2% of PS solution and 10 ng/ml of Brain-derived neurotrophic factor (BDNF) and 1 ng/mL of Glial-Derived Neurotrophic Factor (GDNF). Viable cells were counted in a Neubauer cytometer using the trypan blue exclusion test.
Half of the medium was changed every 2 days with fresh medium. On 96-wells plates, only 60 wells were used, the first columns and first lines were not used to avoid any edge effect, the empty wells were filled with sterile water.
Test compounds were tested on culture in 96-well plates (n=6 culture wells per condition).
Vehicle: Culture medium (0.1% DMSO).
Pre-incubation: On day 6 of culture, the compounds (from 10 nM to 10 μM) were dissolved in DMSO and then in culture medium, and were pre-incubated with primary dopaminergic neurons for 1 hour or 4 hours before the application of MPP+.
Injury: One or four hours after the application of the test compounds, MPP+ was added to a final concentration of 4 μM, diluted in control medium still in presence of compounds for 48 hours.
48 hours after the intoxication, the cell culture supernatant was removed, and the cells were fixed by a solution of 4% paraformaldehyde in PBS, pH=7.3 for 20 min at room temperature. The cells were washed twice in PBS, and then permeabilized. Non-specific sites were blocked with a solution of PBS containing 0.1% saponin and 1% FCS for 15 min at room temperature.
Immunostaining: TH and α-syn
The cultures were incubated with: • A monoclonal anti-Tyrosine Hydroxylase (TH) antibody produced in mouse at dilution of 1/10000 in PBS containing 1% FCS, 0.1% saponin, for 2 hours at room temperature. • a polyclonal anti-alpha synuclein (α-syn) antibody produced in rabbit at dilution of 1/200 in PBS containing 1% FCS, 0.1% saponin, for 2 hours at room temperature.
For each condition, 20 (for the TH survival and α-syn readouts) pictures representing the whole well area, were automatically taken using ImageXpress® (Molecular Devices) at 10× magnification (20 pictures, for TH and α-syn into TH neurons) using the same acquisition parameters. From images, analyses were directly and automatically performed by Custom Module Editor® (Molecular Devices). The following read-outs were measured: • Analysis of total number of THneurons (TH positive neurons), • total length of neurite network of TH positive neurons (in μm), • α-syn aggregation (overlapping between TH and α-syn staining),
Results are expressed in percentage of control. All values show the mean+/−SEM (standard error of the mean) from 4-6 wells per condition.

Structure (SMILES): C[C@@H](NCCCc1cccc(C(F)(F)F)c1)c1cccc2ccccc12 [Cinacalcet, N-[(1R)-1-(1-naphthyl)ethyl]-3-[3-(trifluoromethyl)phenyl]propan-1-amine]
- Effect on aggregation measured by light scattering at 300 and 340 nm (in words) (α-synuclein [1]): significant reduction of the absorbance
- Normalized light scattering value at 300 nm (α-synuclein [1]): 0.44 ± 0.17
- Normalized light scattering value at 340 nm (α-synuclein [1]): 0.48 ± 0.18

Structure (SMILES): O=C(c1ccccc1)N1CCN=C1Nc1c(Cl)cccc1Cl [Benclonidine, [2-(2,6-dichloroanilino)-4,5-dihydroimidazol-1-yl]-phenylmethanone]
- Inhibition of Th-T fluorescence / fibril formation (in words) (α-synuclein [2]): potent inhibitors
- Normalized light scattering value at 300 nm (α-synuclein [1]): 0.95 ± 0.07
- Normalized light scattering value at 340 nm (α-synuclein [1]): 0.98 ± 0.07
- Loss of dopaminergic neurons (TH number) after MPP+ (in words) [3]: partially prevented the loss of dopaminergic neurons
- α-syn aggregation (ratio a-syn area/TH number) triggered by MPP+ (in words) [3]: decreased α-syn aggregation

Structure (SMILES): N=C(N)NCC1COC2(CCCCC2)O1 (centres unmarked) [Guanadrel, 2-(1,4-dioxaspiro[4.5]decan-2-ylmethyl)guanidine]
- Inhibition of Th-T fluorescence / fibril formation (in words) (α-synuclein [2]): more modest inhibition of fibril formation
- Effect on aggregation measured by light scattering at 300 and 340 nm (in words) (α-synuclein [1]): reduced absorbance at both length waves
- Normalized light scattering value at 300 nm (α-synuclein [1]): 0.68 ± 0.06
- Normalized light scattering value at 340 nm (α-synuclein [1]): 0.68 ± 0.06
- Loss of dopaminergic neurons (TH number) after MPP+ (in words) [3]: partially prevented the loss of dopaminergic neurons
- α-syn aggregation (ratio a-syn area/TH number) triggered by MPP+ (in words) [3]: decreased α-syn aggregation

Structure (SMILES): N=C(NN=Cc1ccc(Cl)cc1)NN=Cc1ccc(Cl)cc1 [Robenidine, 1,2-bis[(4-chlorophenyl)methylideneamino]guanidine]
- Effect on aggregation measured by light scattering at 300 and 340 nm (in words) (α-synuclein [1]): significant reduction of the absorbance
- Normalized light scattering value at 300 nm (α-synuclein [1]): 0.31 ± 0.03
- Normalized light scattering value at 340 nm (α-synuclein [1]): 0.31 ± 0.02

Structure (SMILES): CCCOc1ccc2[nH]c(NC(=O)OC)nc2c1 [Oxibendazole, Methyl N-(6-propoxy-1H-benzimidazol-2-yl) carbamate]
- Effect on aggregation measured by light scattering at 300 and 340 nm (in words) (α-synuclein [1]): significant reduction of the absorbance
- Normalized light scattering value at 300 nm (α-synuclein [1]): 0.13 ± 0.02
- Normalized light scattering value at 340 nm (α-synuclein [1]): 0.51 ± 0.10

Structure (SMILES): Cc1ccnc(NS(=O)(=O)c2ccc(N)cc2)n1 [Sulfamerazine, 4-amino-N-(4-methylpyrimidin-2-yl)benzenesulfonamide]
- Inhibition of Th-T fluorescence / fibril formation (in words) (α-synuclein [2]): potent inhibitors
- Effect on aggregation measured by light scattering at 300 and 340 nm (in words) (α-synuclein [1]): reduced absorbance at both length waves
- Normalized light scattering value at 300 nm (α-synuclein [1]): 0.55 ± 0.10
- Normalized light scattering value at 340 nm (α-synuclein [1]): 0.78 ± 0.14

Structure (SMILES): Cn1ncc(Cl)c1-c1cc(C(=O)N[C@H](CN)Cc2cccc(F)c2)sc1Cl [Afuresertib, N-[(2S)-1-amino-3-(3-fluorophenyl)propan-2-yl]-5-chloro-4-(4-chloro-1-methyl-1H-pyrazol-5-yl)thiophene-2-carboxamide]
- Inhibition of Th-T fluorescence / fibril formation (in words) (α-synuclein [2]): potent inhibitors
- Effect on aggregation measured by light scattering at 300 and 340 nm (in words) (α-synuclein [1]): reduced absorbance at both length waves
- Normalized light scattering value at 300 nm (α-synuclein [1]): 0.44 ± 0.08
- Normalized light scattering value at 340 nm (α-synuclein [1]): 0.62 ± 0.09
- Loss of dopaminergic neurons (TH number) after MPP+ (in words) [3]: partially prevented the loss of dopaminergic neurons
- α-syn aggregation (ratio a-syn area/TH number) triggered by MPP+ (in words) [3]: decreased α-syn aggregation

Structure (SMILES): CC(CCc1ccc2c(c1)OCO2)NCC(O)c1ccc(O)c(C(N)=O)c1 (centres unmarked) [Medroxalol, 5-[2-[[3-(1,3-Benzodioxol-5-yl)-1-methylpropyl]amino]-1-hydroxyethyl]-2-hydroxybenzamide]
- Inhibition of Th-T fluorescence / fibril formation (in words) (α-synuclein [2]): more modest inhibition of fibril formation
- Effect on aggregation measured by light scattering at 300 and 340 nm (in words) (α-synuclein [1]): reduced absorbance at both length waves
- Normalized light scattering value at 300 nm (α-synuclein [1]): 0.72 ± 0.03
- Normalized light scattering value at 340 nm (α-synuclein [1]): 0.75 ± 0.04

Structure (SMILES): N=C(N)NC(=O)Cc1c(Cl)cccc1Cl [Guanfacine, N-(diaminomethylidene)-2-(2,6-dichlorophenyl)acetamide]
- Inhibition of Th-T fluorescence / fibril formation (in words) (α-synuclein [2]): more modest inhibition
- Effect on aggregation measured by light scattering at 300 and 340 nm (in words) (α-synuclein [1]): significant reduction of the absorbance
- Normalized light scattering value at 300 nm (α-synuclein [1]): 0.65 ± 0.10
- Normalized light scattering value at 340 nm (α-synuclein [1]): 0.68 ± 0.10
- Loss of dopaminergic neurons (TH number) after MPP+ (in words) [3]: partially prevented the loss of dopaminergic neurons
- α-syn aggregation (ratio a-syn area/TH number) triggered by MPP+ (in words) [3]: decreased α-syn aggregation

Structure (SMILES): Nc1nc(=O)c2ncn([C@H]3C=C[C@@H](CO)C3)c2[nH]1 [(−)-Carbovir, 2-amino-9-[(1R,4S)-4-(hydroxymethyl)cyclopent-2-en-1-yl]-1H-purin-6-one]
- Inhibition of Th-T fluorescence / fibril formation (in words) (α-synuclein [2]): more modest inhibition of fibril formation
- Effect on aggregation measured by light scattering at 300 and 340 nm (in words) (α-synuclein [1]): reduced absorbance at both length waves
- Normalized light scattering value at 300 nm (α-synuclein [1]): 0.72 ± 0.08
- Normalized light scattering value at 340 nm (α-synuclein [1]): 0.77 ± 0.09
